Measurements taken from patent US20250213555A1, “SUBSTITUTED TETRAHYDROFURAN ANALOGS AS MODULATORS OF SODIUM CHANNELS” (VERTEX PHARMACEUTICALS INCORPORATED, priority 2021, published 2025).

Each compound was assayed against human Nav 1.8 (Homo sapiens, UniProt Q9Y5Y9) (assay: E-VIPR assay detecting and measuring Nav inhibition properties). Settings: HEK cells expressing a truncated form of human Nav 1.8; compound numbers without "*" (not marked as run in the presence of human serum); read-out: measured IC50 value in the E-VIPR Assay.
Assay type: cell-based
From the text: E-VIPR Assay Detecting and Measuring Nav Inhibition Properties
Sodium ion channels are voltage-dependent proteins that can be activated by inducing membrane voltage changes by applying electric fields. The electrical stimulation instrument and methods of use, referred to as E-VIPR, are described in International Publication No. WO 2002/008748 A3 and C.-J. Huang et al. Characterization of voltage-gated sodium channel blockers by electrical stimulation and fluorescence detection of membrane potential, 24 Nature Biotech. 439-46 (2006), both of which are incorporated by reference in their entirety. The instrument comprises a microtiter plate handler, an optical system for exciting the coumarin dye while simultaneously recording the coumarin and oxonol emissions, a waveform generator, a current- or voltage-controlled amplifier, and parallel electrode pairs that are inserted into assay plate wells. Under integrated computer control, this instrument passes user-programmed electrical stimulus protocols to cells within the wells of the microtiter plate.
16-20 hours prior to running the assay on E-VIPR, HEK cells expressing a truncated form of human Nav 1.8 with full channel activity were seeded into microtiter 384-well plates, pre-coated with matrigel, at a density of 25,000 cells per well. 2.5-5% KIR2.1 Bacmam virus was added to the final cell suspension before seeding into cell plates. HEK cells were grown in Dulbecco's Modified Eagle's Medium (DMEM) supplemented with 10% FBS (Fetal Bovine Serum, qualified; Sigma #F4135), 1% NEAA (Non-Essential Amino Acids, Gibco #11140), 1% HEPES (Gibco #15630), 1% Pen-Strep (Penicillin-Streptomycin; Gibco #15140) and 5 μg/ml Blasticidin (Gibco #R^210-01). Cells were expanded in vented cap cell culture flasks, with 90-95% humidity and 5% CO2.
100 mg/mL Pluronic F-127 (Sigma #P2443), in dry DMSO
Compound Plates: Corning 384-well Polypropylene Round Bottom #3656
Cell Plates: 384-well tissue culture treated plates (Greiner #781091-2B)
2.5-5% KIR 2.1 Bacmam virus (produced in-house), prepared as described in Section 3.3 of J. A. Fornwald et al., Gene Expression in Mammalian Cells Using BacMam, a Modified Baculovirus System, 1350 Methods in Molecular Biology 95-116 (2016), the entire contents of which are incorporated by reference. The concentration used can be dependent on viral titer of each batch.
5 mM DiSBAC6(3), a voltage sensitive oxonol acceptor (CAS number 169211-44-3; 5-[3-(1,3-dihexylhexahydro-4,6-dioxo-2-thioxo-5-pyrimidinyl)-2-propen-1-ylidene]-1,3-dihexyldihydro-2-thioxo-4,6 (1H,5H)-pyrimidinedione), in dry DMSO. The preparation of DiSBAC6(3) is analogous to that of DiSBAC4(3) as described in Voltage Sensing by Fluorescence Resonance Energy Transfer in Single Cells, Gonzalez, J. E. and Tsien, R. Y. (1995) Biophys. J. 69, 1272-1280.
5 mM CC2-DMPE, a commercially available membrane-bound coumarin phospholipid FRET donor (ThermoFisher Scientific catalog number K1017, CAS number 393782-57-5; tetradecanoic acid, 1,1′-[(1R)-1-[8-(6-chloro-7-hydroxy-2-oxo-2H-1-benzopyran-3-yl)-3-hydroxy-3-oxido-8-oxo-2,4-dioxa-7-aza-3-phosphaoct-1-yl]-1,2-ethanediyl] ester) was prepared in dry DMSO. See also, Improved indicators of cell membrane potential that use fluorescence resonance energy transfer, Gonzalez, J. E. and Tsien, R. Y. (1997) Chem. Biol. 4, 269-277.
Voltage Assay Background Suppression Compound (VABSC-1) is prepared in H2O (89-363 mM, range used to maintain solubility)
Human Serum (HS, Millipore #S1P1-01KL, or Sigma SLBR5469V and SLBR5470V as a 50%/50% mixture, for 25% assay final concentration)
• Sodium Chloride 160 mM (9.35 g/L), Potassium Chloride, 4.5 mM (0.335 g/L), Glucose 10 mM (1.8 g/L), Magnesium Chloride (Anhydrous) 1 mM (0.095 g/L), Calcium Chloride 2 mM (0.222 g/L), HEPES 10 mM (2.38 g/L) in water. […]

Chain of human Nav 1.8 (Q9Y5Y9 126-399 limits assumed): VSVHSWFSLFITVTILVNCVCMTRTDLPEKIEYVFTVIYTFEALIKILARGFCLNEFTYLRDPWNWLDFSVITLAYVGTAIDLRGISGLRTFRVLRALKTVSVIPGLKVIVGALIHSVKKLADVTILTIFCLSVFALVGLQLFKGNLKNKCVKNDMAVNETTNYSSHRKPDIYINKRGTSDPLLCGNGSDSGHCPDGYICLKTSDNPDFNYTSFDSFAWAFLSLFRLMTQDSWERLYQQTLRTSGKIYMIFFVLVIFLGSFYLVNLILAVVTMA
Chain of human Nav 1.8 (Q9Y5Y9 660-890 limits assumed): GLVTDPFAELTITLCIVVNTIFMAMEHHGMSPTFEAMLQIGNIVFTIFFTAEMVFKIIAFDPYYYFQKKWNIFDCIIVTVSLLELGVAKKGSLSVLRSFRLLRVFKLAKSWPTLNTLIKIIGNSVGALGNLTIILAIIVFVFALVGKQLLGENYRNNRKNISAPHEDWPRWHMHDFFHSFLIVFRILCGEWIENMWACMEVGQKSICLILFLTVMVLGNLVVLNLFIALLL
Chain of human Nav 1.8 (Q9Y5Y9 1148-1722 limits assumed): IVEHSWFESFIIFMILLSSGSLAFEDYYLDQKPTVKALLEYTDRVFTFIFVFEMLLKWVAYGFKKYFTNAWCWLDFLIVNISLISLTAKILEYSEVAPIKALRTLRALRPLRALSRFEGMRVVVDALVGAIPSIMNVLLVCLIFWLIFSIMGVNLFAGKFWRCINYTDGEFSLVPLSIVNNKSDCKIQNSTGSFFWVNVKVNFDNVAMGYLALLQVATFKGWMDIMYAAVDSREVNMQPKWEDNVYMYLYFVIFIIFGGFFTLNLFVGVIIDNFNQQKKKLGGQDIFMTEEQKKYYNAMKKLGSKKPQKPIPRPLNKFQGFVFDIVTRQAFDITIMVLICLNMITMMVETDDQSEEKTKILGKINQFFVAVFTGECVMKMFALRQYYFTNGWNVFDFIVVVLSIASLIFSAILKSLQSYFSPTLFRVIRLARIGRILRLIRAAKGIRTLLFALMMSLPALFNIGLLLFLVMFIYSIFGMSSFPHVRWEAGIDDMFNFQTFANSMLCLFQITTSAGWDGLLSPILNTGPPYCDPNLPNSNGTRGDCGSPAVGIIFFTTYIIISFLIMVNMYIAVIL

| IC50 [nM] | SMILES |
| --- | --- |
| 10 to 100 | C[C@H]1[C@@H](c2ccc(F)c(F)c2O[C@@H]2CCN(C)C2)[C@H](C(=O)Nc2ccnc(C(N)=O)c2)O[C@@]1(C)C(F)(F)F (single isomer, unassigned) [Compound 102, rel-4-((2R*,3S*,4S*,5R*)-3-(3,4-difluoro-2-((-1-methylpyrrolidin-3-yl)oxy)phenyl)-4,5-dimethyl-5-(trifluoromethyl)tetrahydrofuran-2-carboxamido)picolinamide] |
| ≥ 1000 | COc1c([C@@H]2[C@@H](C(=O)Nc3ccnc(C(N)=O)c3)O[C@](C)(C(F)(F)F)[C@@H]2C)ccc(F)c1CO (single isomer, unassigned) [Compound 137] |
| ≥ 1000 | COCc1c(F)ccc([C@@H]2[C@@H](C(=O)Nc3ccnc(C(N)=O)c3)O[C@](C)(C(F)(F)F)[C@@H]2C)c1OC (single isomer, unassigned) [Compound 139] |
| < 10 | COCc1c(F)ccc([C@H]2[C@H](C(=O)Nc3ccnc(C(N)=O)c3)O[C@@](C)(C(F)(F)F)[C@H]2C)c1OC (single isomer, unassigned) [Compound 140] |
| 100 to 1000 | COc1c([C@@H]2[C@@H](C(=O)Nc3ccnc(C(N)=O)c3)O[C@](C)(C(F)(F)F)[C@@H]2C)ccc(OCC2CC2)c1F (single isomer, unassigned) [Compound 141] |
| ≥ 1000 | COc1c([C@@H]2[C@@H](C)[C@@](C)(C(F)(F)F)O[C@H]2C(=O)Nc2ccnc(C(N)=O)c2)ccc(OCC2CC2)c1F (single isomer, unassigned) [Compound 142] |
| 100 to 1000 | COc1c([C@@H]2[C@@H](C(=O)Nc3ccnc(C(N)=O)c3)O[C@@](C)(C(F)(F)F)[C@H]2C)ccc(OCC2CC2)c1F (single isomer, unassigned) [Compound 143] |
| < 10 | COc1c([C@H]2[C@H](C(=O)Nc3ccnc(C(N)=O)c3)O[C@@](C)(C(F)(F)F)[C@H]2C)ccc(OCC2CC2)c1F (single isomer, unassigned) [Compound 144] |
| ≥ 1000 | COCc1c([C@@H]2[C@@H](C(=O)Nc3ccnc(C(N)=O)c3)O[C@](C)(C(F)(F)F)[C@@H]2C)ccc(F)c1F (single isomer, unassigned) [Compound 146] |
| < 10 | COCc1c([C@H]2[C@H](C(=O)Nc3ccnc(C(N)=O)c3)O[C@@](C)(C(F)(F)F)[C@H]2C)ccc(F)c1F (single isomer, unassigned) [Compound 147] |
| ≥ 1000 | C[C@@H]1[C@H](c2ccc(F)c3c2CCC3(F)F)[C@@H](C(=O)Nc2ccnc(C(N)=O)c2)O[C@]1(C)C(F)(F)F (single isomer, unassigned) [Compound 148] |
| < 10 | C[C@H]1[C@@H](c2ccc(F)c3c2CCC3(F)F)[C@H](C(=O)Nc2ccnc(C(N)=O)c2)O[C@@]1(C)C(F)(F)F (single isomer, unassigned) [Compound 149] |
| < 10 | CO[C@H](CO)COc1c([C@H]2[C@H](C(=O)Nc3ccnc(C(N)=O)c3)O[C@@](C)(C(F)(F)F)[C@H]2C)ccc(F)c1F (single isomer, unassigned) [Compound 160, rel-4-((2R*,3S*,4S*,5R*)-3-(3,4-difluoro-2-(3-hydroxy-2-methoxypropoxy)phenyl)-4,5-dimethyl-5-(trifluoromethyl)tetrahydrofuran-2-carboxamido)picolinamide] |
| 10 to 100 | CO[C@H](CO)COc1c([C@H]2[C@H](C(=O)Nc3ccnc(C(N)=O)c3)O[C@@](C)(C(F)(F)F)[C@H]2C)ccc(F)c1F (single isomer, unassigned) [Compound 161, rel-4-((2R*,3S*,4S*,5R*)-3-(3,4-difluoro-2-(3-hydroxy-2-methoxypropoxy)phenyl)-4,5-dimethyl-5-(trifluoromethyl)tetrahydrofuran-2-carboxamido)picolinamide] |
| < 10 | CC=C(CO)COc1c([C@H]2[C@H](C(=O)Nc3ccnc(C(N)=O)c3)O[C@@](C)(C(F)(F)F)[C@H]2C)ccc(F)c1F (single isomer, unassigned) [Compound 164, rel-4-((2R*,3S*,4S*,5R*)-3-(3,4-difluoro-2-((2-(hydroxymethyl)but-2-en-1-yl)oxy)phenyl)-4,5-dimethyl-5-(trifluoromethyl)tetrahydrofuran-2-carboxamido)picolinamide] |
| < 10 | CON=C(C)COc1c([C@H]2[C@H](C(=O)Nc3ccnc(C(N)=O)c3)O[C@@](C)(C(F)(F)F)[C@H]2C)ccc(F)c1F (single isomer, unassigned) [Compound 194, rel-4-((2R*,3S*,4S*,5R*)-3-(3,4-difluoro-2-(2-(methoxyimino)propoxy)phenyl)-4,5-dimethyl-5-(trifluoromethyl)tetrahydrofuran-2-carboxamido)picolinamide] |
| < 10 | CC1C(c2ccc(F)c(F)c2OCC2CC(O)C2)C(C(=O)Nc2cccc(C(N)=O)c2)OC1(C)C(F)(F)F (single isomer, unassigned) [Compound 197, rel-(2R*,3S*,4S*,5R*)-N-(3-carbamoylphenyl)-3-(3,4-difluoro-2-(((1r,3S)-3-hydroxycyclobutyl)methoxy)phenyl)-4,5-dimethyl-5-(trifluoromethyl)tetrahydrofuran-2-carboxamide] |
| 10 to 100 | CC1C(c2ccc(F)c(F)c2OCC2CC(C)(O)C2)C(C(=O)Nc2ccnc(C(N)=O)c2)OC1(C)C(F)(F)F (single isomer, unassigned) [Compound 200, rel-4-((2R*,3S*,4S*,5R*)-3-(3,4-difluoro-2-(((1s,3R)-3-hydroxy-3-methylcyclobutyl)methoxy)phenyl)-4,5-dimethyl-5-(trifluoromethyl)tetrahydrofuran-2-carboxamido)picolinamide] |
| ≥ 1000 | CCOc1ccc([C@@H]2[C@@H](C(=O)Nc3ccnc(C(N)=O)c3)O[C@](C)(C(F)(F)F)[C@@H]2C)c2c1OC(F)(F)O2 (single isomer, unassigned) [Compound 209] |
| < 10 | CNC1CCN(C(=O)c2cc(NC(=O)[C@@H]3O[C@@](C)(C(F)(F)F)[C@@H](C)[C@H]3c3ccc(F)c(F)c3OC)ccn2)C1 (single isomer, unassigned) [Compound 222, rel-(2R*,3S*,4S*,5R*)-3-(3,4-difluoro-2-methoxyphenyl)-4,5-dimethyl-N-(2-(3-(methylamino)pyrrolidine-1-carbonyl)pyridin-4-yl)-5-(trifluoromethyl)tetrahydrofuran-2-carboxamide] |

| SMILES | IC50 [nM] |
| --- | --- |
| C[C@H]1[C@@H](c2ccc(F)c(F)c2OCC(=NO)C2CC2)[C@H](C(=O)Nc2ccnc(C(N)=O)c2)O[C@@]1(C)C(F)(F)F (single isomer, unassigned) [Compound 183, rel-4-((2R*,3S*,4S*,5R*)-3-(2-(2-cyclopropyl-2-(hydroxyimino)ethoxy)-3,4-difluorophenyl)-4,5-dimethyl-5-(trifluoromethyl)tetrahydrofuran-2-carboxamido) picolinamide] | < 10 |
| CC(C)C(COc1c([C@H]2[C@H](C(=O)Nc3ccnc(C(N)=O)c3)O[C@@](C)(C(F)(F)F)[C@H]2C)ccc(F)c1F)=NO (single isomer, unassigned) [Compound 187, rel-4-((2R*,3S*,4S*,5R*)-3-(3,4-difluoro-2-(2-(hydroxyimino)-3-methylbutoxy)phenyl)-4,5-dimethyl-5-(trifluoromethyl)tetrahydrofuran-2-carboxamido)picolinamide] | < 10 |
